“Also recorded” adds a separate entry of the source.
Legend:
calstabin1/RyR1 complex = test: RyR1 biochemical analysis (immunoprecipitation): oxidation, phosphorylation, calstabin1 interaction; format: in vivo, mouse; conditions: for RyR function: associated with VIDD prevention in the murine and porcine models; for RyR oxidation, and phosphorylation: statement in discussion for both compounds
Method: Muscle biopsies were homogenized in 150 μl of buffer containing 5% SDS, 5% beta-mercaptoethanol, 10% glycerol, 10 mM EDTA and 50 mM Tris/HCl buffer (pH=8.0). Each sample was immediately denatured at 90 °C for 4 min. After centrifugation (5000 rpm) at 4 °C, supernatant protein concentrations were measured in duplicate using the BCA protein assay, equilibrated at the same concentration by dilution with loading buffer and aliquoted at 2 μg/μl. RyR1 was immunoprecipitated from 250 μg of homogenate using an anti-RyR antibody (4 μg RyR1-1327) in 0.5 ml of a modified RIPA buffer (50 mM Tris-HCl pH 7.4, 0.9% NaCl, 5.0 mM NaF, 1.0 mM Na3VO4, 1% Triton-X100, and protease inhibitors) for 1 hr at 4 °C. The immune complexes were incubated with protein A Sepharose beads (Amersham Pharmacia) at 4 °C for 1 hr and the beads were washed three times with buffer. Proteins were separated on SDS-PAGE gels (4-20% gradient) and transferred onto nitrocellulose membranes for 2 hr at 200 mA (SemiDry transfer blot, Bio-Rad). To prevent non-specific antibody binding, the membranes were incubated with blocking solution (LICOR Biosciences) and washed with Tris-buffered saline with 0.1% Tween-20.
Blots were respectively incubated with primary antibody to RyR1 (RyR1-1327, an affinity-purified rabbit polyclonal antibody raised against a KLH-conjugated peptide with the amino acid sequence CAEPDTDYENLRRS, corresponding to residues 1327-1339 of mouse skeletal RyR1, with an additional cysteine residue added to the amino terminus), and affinity purified with the unconjugated peptide. The inventors also used antibody to calstabin1 (1:2500 in blocking buffer, LICOR Biosciences); phospho-epitope-specific antibody to human RyR2 phosphorylated on Ser-2808 (1:5,000), which detects PKA-phosphorylated mouse RyR1 (on Ser-2844) and RyR2 (on Ser-2808); antibody to S-nitrosylated cysteine residues (1:1000, Sigma). To determine RyR1 oxidation, the immunoprecipitate was treated with 2, 4-dinitrophenyl hydrazine, and the derivatized carbonyls were detected using an OxyBlot protein oxidation detection Kit (catalog S7150, Chemicon International Inc.). After three washes, membranes were incubated with infrared-labeled secondary antibodies. Control samples were analyzed on each gel for normalization and total levels of RyR1 were not different between groups.
Diaphragm samples from the above experiments were frozen and solubilized to further investigate the biochemical properties of the RyR1 macromolecular complex.

piglet diaphragm (VIDD) = test: Trans-diaphragmatic pressure (Pdi)-frequency relationship after 72 hours of mechanical ventilation in piglets; format: in vivo; conditions: for prevention of VIDD in porcine model: general statement, piglets
Method: As previously described^18,25, twelve piglets (15-20 kg) were separated in two groups of six animals/each. In both groups, oxygenation was maintained with a fraction of inspired oxygen (FIO2) ranging from 25 to 35%, tidal volume between 10 and 12 ml·kg^−1 body weight and breathing frequency from 15 to 30 cycles/min to maintain normocapnia. In the first group (MV group), piglets were mechanically ventilated using CMV, with a positive end-expiratory pressure level at 5 cm H2O. The absence of spontaneous breathing was verified on the ventilator trend graphs, and the diaphragm electromyographic activity was measured to ensure the absence of diaphragm electrical activity. In the second group (control group), piglets were ventilated using ASV, with settings in phase with the piglet body weight (inspiratory flow trigger at 0.3 L·min^−1, percentage of mechanical ventilation between 100 and 150%, positive end-expiratory pressure level at 5 cm H2O, and expiratory trigger at 25% of the peak inspiratory flow). The diaphragm electromyographic activity was assessed to verify that piglets could breathe spontaneously. Both groups received the same care, except for the MV mode.
Briefly, piglets were anesthetized by intravenous injection of 5-6 mg kg^−1 pentobarbital sodium, intubated with a cuffed endotracheal tube and mechanically ventilated (Galileo®; Hamilton Medical AG, Rhazuns, Switzerland). Anesthesia was maintained with continuous intravenous infusion of 15-20 mg·kg^−1 propofol, 0.1-0.3 mg·kg^−1 midazolam and 3-4 mg·kg^−1·h^−1 ketamine. The level of sedation was monitored by using a bispectral index system (BIS®; Aspect, Norwood, MA). Heating pads were employed, as needed, to maintain the normal body temperature of 38.5-39.5 °C. […]
Arterial carbon dioxide pressure was monitored using a capnograph (Deltatrac®; Datex-Ohmeda, Helsinki, Fin-land) and verified by arterial blood gas analysis (iSTAT®; Abbott, Abbott Park, IL). […]
The diaphragm contractile function was assessed in vivo by measuring the transdiaphragmatic pressure (Pdi)^18. […]

| SMILES | RyR function (calstabin1/RyR1 complex) | RyR oxidation, and phosphorylation (calstabin1/RyR1 complex) | reduction of trans-diaphragmatic pressure (Pdi) / VIDD in piglets (piglet diaphragm (VIDD); IV bolus 0.250 mg·kg^−1 then 0.025 mg·kg^−1 every 12 hours, 72 h MV) | prevention of VIDD in porcine model (piglet diaphragm (VIDD)) | biochemical signature of leaky RyR1 (oxidation, ser2844 phosphorylation, calstabin1 depletion) (calstabin1/RyR1 complex; mouse diaphragm after 6 h MV, 4F4t-NeuroP IV) | calstabin1/RyR1 complex (calstabin1/RyR1 complex; mouse diaphragm after 6 h MV, calstabin1/RyR1 interaction) |
| --- | --- | --- | --- | --- | --- | --- |
| CC/C=C\C[C@@H]1[C@H](/C=C/C(O)CCC(=O)O)[C@@H](O)C[C@H]1O (mixture of isomers) [VB558, (E)-6-((1S,2R,3R,5S)-3,5-dihydroxy-2-((Z)-pent-2-en-1-yl)cyclopentyl)-4-hydroxyhex-5-enoic Acid] | normalization of RyR function | prevent RyR oxidation, and phosphorylation | prevents VIDD in piglets after 72 hours of ventilation; also recorded: fully prevented | prevent with a high efficiency VIDD | – | – |
| CC/C=C\C/C=C\C/C=C\C[C@@H]1[C@H](/C=C/C(O)CCC(=O)O)[C@@H](O)C[C@H]1O (mixture of isomers) [Compound 4F4t-NeuroP, 4(RS)-4-F4t-Neuroprostane] | normalization of RyR function | prevent RyR oxidation, and phosphorylation | – | prevent with a high efficiency VIDD | this post-translational remodeling was prevented; also recorded: fully prevented | Stabilizes the Complex Calstabin1/RyR1 |

Reference: US20260373164A1, “4(RS)-4-F4-NEUROPROSTANE DERIVATIVES (4-F4T-NEUROP) AND THEIR USE IN TREATING VENTILATOR INDUCED DIAPHRAGMATIC DYSFUNCTION AND OTHER DISEASES” (INSTITUT NATIONAL DE LA SANTÉ ET DE LA RECHERCHE MÉDICALE, priority 2022, published 2026)
